Data published in patent USRE47221E1, “Tricyclic compounds” (AbbVie Inc., priority 2009, dated 2019).
Structures can show the parent of a compound that is named as a salt.

Target: T1, Jak3 (Homo sapiens, UniProt P52333)
T1 construct: Jak3 enzyme (aa 811-1103); expressed in SF9 cells as a GST fusion; GST; made in house; host or cells: SF9 insect cells
Assay: Jak3 enzyme data for selected compounds
Format: biochemical

T1 sequence (P52333 811-1103): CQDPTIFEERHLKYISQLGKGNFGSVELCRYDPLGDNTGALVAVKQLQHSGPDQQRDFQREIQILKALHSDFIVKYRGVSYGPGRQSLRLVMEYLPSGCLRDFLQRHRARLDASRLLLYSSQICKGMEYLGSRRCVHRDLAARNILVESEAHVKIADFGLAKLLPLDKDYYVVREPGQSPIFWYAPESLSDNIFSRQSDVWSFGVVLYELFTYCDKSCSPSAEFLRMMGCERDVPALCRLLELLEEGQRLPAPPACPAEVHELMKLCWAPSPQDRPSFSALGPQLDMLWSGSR

SMILES | IC50
C[C@@H]1C[C@H](OCC2CC2)C[C@@H]1c1nnc2cnc3[nH]ccc3n12 [D.1.54] | > 1000 nM
CC[C@@H]1C[C@H](NS(=O)(=O)NCCO)C[C@@H]1c1nnc2cnc3[nH]ccc3n12 [D.1.56] | 100 to 1000 nM
CC[C@@H]1C[C@H](NS(=O)(=O)CCn2ccnn2)C[C@@H]1c1nnc2cnc3[nH]ccc3n12 [D.1.58] | 100 to 1000 nM
CC[C@@H]1C[C@H](NS(=O)(=O)CCn2nccn2)C[C@@H]1c1nnc2cnc3[nH]ccc3n12 [D.1.59] | 100 to 1000 nM
CC[C@@H]1C[C@H](NS(=O)(=O)CCN2CCC(F)(F)CC2)C[C@@H]1c1nnc2cnc3[nH]ccc3n12 [D.1.60] | > 1000 nM
CC[C@@H]1C[C@H](NS(=O)(=O)CCN2CCOCC2)C[C@@H]1c1nnc2cnc3[nH]ccc3n12 [D.1.61] | > 1000 nM
CC[C@@H]1C[C@H](NCCS(=O)(=O)N2CCC(F)(F)C2)C[C@@H]1c1nnc2cnc3[nH]ccc3n12 [D.1.62] | > 1000 nM
O=S(=O)(CCC(F)(F)F)N1CC2CC1CN2c1ncc2cnc3[nH]ccc3n12 (stereo not drawn) [D.1.63] | > 1000 nM
O=S(=O)(CCC(F)(F)F)N1CC2CN(c3ncc4cnc5[nH]ccc5n34)CC2C1 (stereo not drawn) [D.1.64] | > 1000 nM
O=S(=O)(CCC(F)(F)F)N1CCN(c2ncc3cnc4[nH]ccc4n23)CC(F)C1 (stereo not drawn) [D.1.65] | > 1000 nM
CC[C@@H]1C[C@H](NS(=O)(=O)C(C)(C)C)C[C@@H]1c1nnc2cnc3[nH]ccc3n12 [D.1.67] | 100 to 1000 nM
CC1CCN(S(=O)(=O)CCC(F)(F)F)CCN1c1ncc2cnc3[nH]ccc3n12 (stereo not drawn) [D.1.70] | 100 to 1000 nM
O=S(=O)(CCC(F)(F)F)NC1CCCN(c2ncc3cnc4[nH]ccc4n23)C1 (stereo not drawn) [D.1.72] | 100 to 1000 nM
O=S(=O)(CCC(F)(F)F)N1CCC2CC1CN2c1ncc2cnc3[nH]ccc3n12 (stereo not drawn) [D.1.73] | > 1000 nM
O=S(=O)(NC12CCC(c3ccc4cnc5[nH]ccc5n34)(CC1)CC2)C1CC1 [D.1.76] | 100 to 1000 nM
C[C@@H]1C[C@H](NS(=O)(=O)C2(C)CC2)C[C@@H]1c1ncc2cnc3[nH]ccc3n12 [D.1.77] | 100 to 1000 nM
C[C@@H]1C[C@H](NS(=O)(=O)N2CC(F)(F)C2)C[C@@H]1c1ncc2cnc3[nH]ccc3n12 [D.1.78] | < 100 nM
C[C@@H]1C[C@H](NS(=O)(=O)CCC(F)(F)F)C[C@@H]1c1ncc2cnc3[nH]ccc3n12 [D.1.79] | < 100 nM
C[C@@H]1C[C@H](NS(=O)(=O)N2CCC(F)(F)C2)C[C@@H]1c1ncc2cnc3[nH]ccc3n12 [D.1.80] | < 100 nM

SMILES | IC50
CC[C@@H]1C[C@H](NS(=O)(=O)C2(CC)CC2)C[C@@H]1c1nnc2cnc3[nH]ccc3n12 [D.1.82] | 100 to 1000 nM
CCC1(S(=O)(=O)N[C@H]2C[C@@H](C)[C@@H](c3ncc4cnc5[nH]ccc5n34)C2)CC1 [D.1.83] | < 100 nM
CCCCC1(S(=O)(=O)N[C@H]2C[C@@H](CC)[C@@H](c3nnc4cnc5[nH]ccc5n34)C2)CC1 [D.1.84] | 100 to 1000 nM
CC[C@@H]1C[C@H](NS(=O)(=O)N2CC(C#N)C2)C[C@@H]1c1nnc2cnc3[nH]ccc3n12 [D.2.5] | 100 to 1000 nM
C[C@@H]1C[C@H](Nc2cccc(C#N)c2)C[C@@H]1c1nnc2cnc3[nH]ccc3n12 [D.2.6] | > 1000 nM
CC[C@@H]1C[C@H](Nc2cnc(C#N)cn2)C[C@@H]1c1nnc2cnc3[nH]ccc3n12 [D.2.11] | 100 to 1000 nM
CC[C@@H]1C[C@H](Nc2cnc(C#N)cn2)C[C@@H]1c1ncc2cnc3[nH]ccc3n12 [D.2.13] | < 100 nM
N#Cc1cnc(NC[C@H]2CC[C@@H](c3ncc4cnc5[nH]ccc5n34)C2)cn1 [D.2.15] | 100 to 1000 nM
CC[C@@H]1C[C@H](Nc2ccc(C#N)cn2)C[C@@H]1c1nnc2cnc3[nH]ccc3n12 [D.2.19] | 100 to 1000 nM
C[C@@H]1C[C@H](Nc2cnc(C#N)cn2)C[C@@H]1c1ncc2cnc3[nH]ccc3n12 [D.2.21] | 100 to 1000 nM
N#Cc1ccnc(NC[C@H]2CC[C@@H](c3nnc4cnc5[nH]ccc5n34)C2)c1 [D.2.23] | > 1000 nM
CC[C@@H]1C[C@@H](Oc2ccc(C#N)cc2)C[C@@H]1c1ncc2cnc3[nH]ccc3n12 [D.2.24] | < 100 nM
C[C@@H]1CCN(S(=O)(=O)N2CCCC2)C[C@@H]1c1ncc2cnc3[nH]ccc3n12 [DD.1.1] | < 100 nM
O=C(C1CC(F)(F)C1)N1CCC[C@@H](c2cnc3cnc4[nH]ccc4n23)C1 [Example #3, (R)-(3-(3H-imidazo[1,2-a]pyrrolo[2,3-e]pyrazin-8-yl)piperidin-1-yl)(3,3-difluorocyclobutyl)methanone] | < 100 nM
CC[C@@H]1C[C@@H](Oc2ccc(C#N)cc2)C[C@@H]1c1nnc2cnc3[nH]ccc3n12 [Example #4, 4-((1R,3R,4S)-3-ethyl-4-(6H-pyrrolo[2,3-e][1,2,4]triazolo[4,3-a]pyrazin-1-yl)cyclopentyloxy)benzonitrile] | < 100 nM
C[C@@H]1CCN(C(=NC#N)N2CCCC2)C[C@@H]1c1ncc2cnc3[nH]ccc3n12 [Example #5, N-(((3R,4R)-3-(6H-imidazo[1,5-a]pyrrolo[2,3-e]pyrazin-1-yl)-4-methylpiperidin-1-yl)(pyrrolidin-1-yl)methylene)cyanamide] | 100 to 1000 nM
O=C(N1CCC(F)(F)CC1)N1CCC[C@@H](c2ncc3cnc4[nH]ccc4n23)C1 [Example #6, (R)-(3-(6H-imidazo[1,5-a]pyrrolo[2,3-e]pyrazin-1-yl)piperidin-1-yl)(4,4-difluoropiperidin-1-yl)methanone] | 100 to 1000 nM
CC[C@@H]1C[C@H](Nc2ncc(C#N)s2)C[C@@H]1c1nnc2cnc3[nH]ccc3n12 [Example #8, 2-((1S,3R,4S)-3-ethyl-4-(6H-pyrrolo[2,3-e][1,2,4]triazolo[4,3-a]pyrazin-1-yl)cyclopentylamino)thiazole-5-carbonitrile] | 100 to 1000 nM
O=S(=O)(NC12CCC(c3nnc4cnc5[nH]ccc5n34)(CC1)CC2)N1CCCC1 [Example #9, N-(4-(6H-pyrrolo[2,3-e][1,2,4]triazolo[4,3-a]pyrazin-1-yl)bicyclo[2.2.2]octan-1-yl)pyrrolidine-1-sulfonamide] | 100 to 1000 nM

SMILES | IC50
CC[C@@H]1C[C@H](NS(=O)(=O)C2CC2)C[C@@H]1c1nc(CCCO)c2cnc3[nH]ccc3n12 [Example #14, N-((1S,3R,4S)-3-ethyl-4-(3-(3-hydroxypropyl)-6H-imidazo[1,5-a]pyrrolo[2,3-e]pyrazin-1-yl)cyclopentyl)cyclopropanesulfonamide] | < 100 nM
CC[C@@H]1C[C@H](NS(=O)(=O)C2CC2)C[C@@H]1c1nc(CO)c2cnc3[nH]ccc3n12 [Example #17, N-((1S,3R,4S)-3-ethyl-4-(3-(hydroxymethyl)-6H-imidazo[1,5-a]pyrrolo[2,3-e]pyrazin-1-yl)cyclopentyl)cyclopropanesulfonamide] | < 100 nM
CC[C@@H]1C[C@H](NS(=O)(=O)C2CC2)C[C@@H]1c1nc(CCO)c2cnc3[nH]ccc3n12 [Example #18, N-((1S,3R,4S)-3-ethyl-4-(3-(2-hydroxyethyl)-6H-imidazo[1,5-a]pyrrolo[2,3-e]pyrazin-1-yl)cyclopentyl)cyclopropanesulfonamide] | 100 to 1000 nM
c1cc2c(ncc3ncn(C4CCCCC4)c32)[nH]1 [Example #21, 1-cyclohexyl-1,6-dihydroimidazo[4,5-d]pyrrolo[2,3-b]pyridine] | 100 to 1000 nM
CC[C@@H]1C[C@H](OC2CCOCC2)C[C@@H]1c1nnc2cnc3[nH]ccc3n12 [Example #22, 1-((1S,2R,4S)-2-ethyl-4-(tetrahydro-2H-pyran-4-yloxy)cyclopentyl)-6H-pyrrolo[2,3-e][1,2,4]triazolo[4,3-a]pyrazine] | > 1000 nM
CC[C@@H]1C[C@H](Nc2cnc(C#N)cn2)CN1c1ncc2cnc3[nH]ccc3n12 [Example #26, 5-((3S,5R)-5-ethyl-1-(6H-imidazo[1,5-a]pyrrolo[2,3-e]pyrazin-1-yl)pyrrolidin-3-ylamino)pyrazine-2-carbonitrile oxalate] | 100 to 1000 nM
CC[C@@H]1C[C@H](NS(=O)(=O)CCC(F)(F)F)CN1c1ncc2cnc3[nH]ccc3n12 [Example #27, N-((3S,5R)-5-ethyl-1-(6H-imidazo[1,5-a]pyrrolo[2,3-e]pyrazin-1-yl)pyrrolidin-3-yl)-3,3,3-trifluoropropane-1-sulfonamide] | > 1000 nM
c1cc2c3c(cnc2[nH]1)CCCN3C1CCCCC1 [Example #28, 1-cyclohexyl-2,3,4,7-tetrahydro-1H-pyrrolo[2,3-h][1,6]naphthyridine] | > 1000 nM
O=S(=O)(NC12CCC(c3n[nH]c4cnc5[nH]ccc5c34)(CC1)CC2)C1CC1 [Example #29, N-(4-(3,6-dihydropyrazolo[4,3-d]pyrrolo[2,3-b]pyridin-1-yl)bicyclo[2.2.2]octan-1-yl)cyclopropanesulfonamide] | < 100 nM
CC[C@@H]1C[C@H](N(C#N)S(=O)(=O)C2CC2)C[C@@H]1c1nnc2cnc3[nH]ccc3n12 [Example #32, N-cyano-N-((1S,3R,4S)-3-ethyl-4-(6H-pyrrolo[2,3-e][1,2,4]triazolo[4,3-a]pyrazin-1-yl)cyclopentyl)cyclopropanesulfonamide] | 100 to 1000 nM
C[C@@H]1CCN(C(=O)C2CCC(F)(F)CC2)C[C@@H]1c1ncc2cnc3[nH]ccc3n12 [H.1.1] | < 100 nM
C[C@@H]1CCN(C(=O)CC(F)(F)F)C[C@@H]1c1ncc2cnc3[nH]ccc3n12 [H.1.2] | < 100 nM
C#CCCC(=O)N1CC[C@@H](C)[C@@H](c2ncc3cnc4[nH]ccc4n23)C1 [H.1.6] | < 100 nM
C[C@@H]1CCN(C(=O)CCc2cc(Cl)no2)C[C@@H]1c1ncc2cnc3[nH]ccc3n12 [H.1.10] | < 100 nM
C[C@@H]1CCN(C(=O)C2CC(F)(F)C2)C[C@@H]1c1ncc2cnc3[nH]ccc3n12 [H.1.21] | < 100 nM
C[C@@H]1CCN(C(=O)CCC#N)C[C@@H]1c1ncc2cnc3[nH]ccc3n12 [H.1.25] | < 100 nM
O=C(C1CC(F)(F)C1)N1CCC[C@@H](c2ncc3cnc4[nH]ccc4n23)C1 [H.4.1] | 100 to 1000 nM
C[C@@H]1CCN(C(=O)N2CCCCC2)C[C@@H]1c1ncc2cnc3[nH]ccc3n12 [I.1.1, ((3R,4R)-3-(6H-imidazo[1,5-a]pyrrolo[2,3-e]pyrazin-1-yl)-4-methylpiperidin-1-yl)(piperidin-1-yl)methanone] | < 100 nM
C[C@@H]1CCN(C(=O)N2CCOCC2)C[C@@H]1c1ncc2cnc3[nH]ccc3n12 [I.1.2] | < 100 nM
